Source: PMC6412019, “Discovery of NV-5138, the first selective Brain mTORC1 activator” (Scientific Reports, 2019)

How the values were obtained:
[1] = molecular target: T1, Sestrin2/GATOR2 interaction (Homo sapiens, UniProt P58004); test: Cell-free Sesn2/WDR24 (GATOR2) interaction assay on immunoprecipitates; type: biochemical; settings: added to immunoprecipitated complexes from amino acid-starved cells for 10 min
T1 construct: expressed in transfected cells; host or cells: HEK-293T stably expressing Flag-WDR24; Sestrin2 and the other GATOR2 subunits endogenous
T1 sequence (P58004 1-480): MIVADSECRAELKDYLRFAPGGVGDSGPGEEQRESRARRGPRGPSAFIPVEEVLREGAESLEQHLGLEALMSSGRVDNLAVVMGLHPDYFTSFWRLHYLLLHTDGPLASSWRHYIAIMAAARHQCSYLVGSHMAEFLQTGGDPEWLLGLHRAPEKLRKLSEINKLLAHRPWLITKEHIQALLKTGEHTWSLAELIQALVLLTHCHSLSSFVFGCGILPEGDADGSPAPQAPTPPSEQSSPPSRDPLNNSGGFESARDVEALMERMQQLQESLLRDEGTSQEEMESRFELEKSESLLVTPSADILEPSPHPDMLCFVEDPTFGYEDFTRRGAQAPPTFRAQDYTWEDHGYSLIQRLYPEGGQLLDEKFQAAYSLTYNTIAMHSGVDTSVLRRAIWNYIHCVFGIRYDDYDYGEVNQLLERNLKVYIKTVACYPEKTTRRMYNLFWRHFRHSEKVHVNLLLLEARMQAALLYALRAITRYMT
Procedure: Expression of flag-WDR24 allows for immunoprecipitation of the Sestrin2/GATOR2 complex from amino acid-starved cells with an anti-flag antibody. […] Finally, to determine whether Sestrins and the GATOR pathway are required for NV-5138 activity, HEK-293T cells null for all three Sestrin isoforms or the GATOR1 component Nprl3 were obtained.
Cell lysates were prepared as previously described. Lysates were cleared by centrifugation at 13,200 rpm at 4 °C for 8 min. For anti-FLAG IPs, the FLAG-M2 affinity gel was added to approximately 2 mg of lysates and incubated with rotation for 3 h at 4 °C. Following IP, the beads were washed one time with Triton wash buffer containing 500 mM NaCl. […] After compound incubation, IPs were collected by centrifugation. Immunoprecipitated proteins were denatured and, resolved by SDS-PAGE. Membranes were imaged using the LI-COR imaging system. Reagents and antibodies used are listed in Supplementary Information.

[2] = system: panel of 107 adverse drug effect targets; test: Eurofins/Cerep off-target selectivity panel; settings: up to 300 µM; threshold >50% binding/response; incl. AMPA, kainate and NMDA receptor isoforms
Procedure: While mTORC1 activation by NV-5138 appears dependent upon an intact Sestrins/GATOR2 pathway and not upon protein incorporation or transamination by BCAT, NV-5138 was tested for off-target activity in the Eurofins/Cerep panel of over 100 potential targets. The selectivity panel included AMPA, kainate and NMDA receptor isoforms (Supplementary Table 2a–c). […] As observed in the Eurofins/Cerep panel, there was no effect of NV-5138 at 300 µM final concentration (data not shown).
NV-5138 was tested in duplicate at a concentration of 300 µM for potential interaction with a panel of 107 adverse drug effect targets including 21 transporters, receptors, ion channels and enzymes expressed in the CNS (Eurofins Pharma Discovery Services). The threshold to exclude a significant interaction was set as a binding/response of >50%.

[3] = Pharmacokinetic analysis in rats; type: in vivo, rat
Procedure: To determine oral bioavailability, male SD rats were dosed I.V at 1 mg/kg and PO at 5 mg/kg with NV-5138 in 0.5% MC/0. 1% Tween80 (n = 3 per time point per group). Rats were fasted overnight for PO group and were given free access to food and water for IV group. After dosing, tail-vein blood was collected at the indicated time points into K2EDTA tubes and centrifuged at 2,000 g for 5 min to collect plasma. To measure levels of NV-5138 in the brain and plasma, rats were dosed PO at 160 mg/kg (n = 5), sacrificed 1 h after dosing via decapitation and trunk blood and one hemisphere of the brain was collected. Plasma was combined with acetonitrile containing pregabalin as an internal standard and centrifuged, brain and heart samples were homogenized directly into acetonitrile. Levels of NV-5138 were quantified via LC-MS/MS. WinNonlin V 6.2 statistics software (Pharsight Corporation, California, USA) was used to generate pharmacokinetics parameters using non-compartmental model.

[4] = system: Synapsin1, GluR1 and PSD95; test: Synaptic proteins in rat prefrontal cortex synaptoneurosomes (immunoblot); type: in vivo; settings: 24 h after single 160 mg/kg PO
Procedure: We investigated the activation of mTORC1 in the brain further by determining the time course of mTORC1 activation following a single administration of NV-5138. […] The decrease in mTORC1 signaling in the NV-5138 treated group 24 h following administration while significant was not consistently observed. […] It should be noted that while the activation of mTORC1 in the prefrontal cortex correlated with compound exposure, the increased expression of synaptic proteins was observed well after compound levels have dropped and mTORC1 activity was back to baseline/vehicle levels.
After compound administration, animals were sacrificed by decapitation using a guillotine, immediately Specific regions of the brain were quickly microdissected, tissues collected, and flash frozen in liquid nitrogen. Peripheral tissues and all brain were homogenized using MP homogenizer in Lysis Buffer (Cell lysis buffer: 1% Triton X-100, 50 mM HEPES pH 7.4, 100 mM NaCl, 2 mM EDTA, 10 mM Beta-glycerophosphate, 10 mM Sodium pyrophosphate, and 1 protease inhibitor) at 4 °C. Synaptic proteins and mTORC1 analyses in each brain region were conducted on crude synaptoneurosome preparations as previously described. Equal amounts of total protein from each sample were denatured and, resolved by SDS-PAGE. Membranes were imaged using the LI-COR imaging system. […]

[5] = cited from earlier work

Structure (SMILES)	disruption of Sestrin2/GATOR2 interaction, cell-free [1]	off-target activity in selectivity panel [2]	bioavailability ([3]; male, SD, rat, plasma, oral, 5 mg/kg, male SD rats, IV 1 mg/kg and PO 5 mg/kg) [%]	half-life ([3]; male, SD, rat, plasma, other: intravenous and oral, rats, intravenous and oral dosing, read-out: elimination half-life in plasma (converted)) [min]	brain versus plasma exposure ([3]; rats, 160 mg/kg PO, 160 mg/kg)	synaptic proteins Synapsin1, GluR1 and PSD95 versus vehicle [4]	cerebrospinal fluid (CSF) levels as fraction of plasma concentrations [5]
CC(C)(C[C@H](N)C(=O)O)C(F)F [NV-5138, (S)-2-amino-5,5-difluoro-4,4-dimethylpentanoic acid]	rapidly disrupts the Sestrin2/GATOR2 interaction in a dose-dependent manner	no activity against any target	100	~180	brain and plasma concentrations of NV-5138 are equal	significant increase	
CC(C)C[C@H](N)C(=O)O [Leucine, L-leucine, reference compound]							5–10%
